In publication PMC3781034, “A Small-Animal Pharmacokinetic/Pharmacodynamic PET Study of Central Serotonin 1A Receptor Occupancy by a Potential Therapeutic Agent for Overactive Bladder” (PLoS ONE, 2013):

Assays:
5-HT1A receptors [1] = biological target: T1, 5-HT1A receptors (Rattus norvegicus, UniProt P19327); experiment: PET 5-HT1A receptor occupancy, dose-response study ([11C]WAY-100635, Emax model); format: in vivo, Sprague-Dawley rat
T1 construct: occupancy of 5-HT1A receptors in living Sprague-Dawley rat brains; from tissue; host or cells: living Sprague-Dawley rat brain (medial prefrontal cortex, dorsal raphe nucleus), in vivo PET
T1 sequence (P19327 1-422): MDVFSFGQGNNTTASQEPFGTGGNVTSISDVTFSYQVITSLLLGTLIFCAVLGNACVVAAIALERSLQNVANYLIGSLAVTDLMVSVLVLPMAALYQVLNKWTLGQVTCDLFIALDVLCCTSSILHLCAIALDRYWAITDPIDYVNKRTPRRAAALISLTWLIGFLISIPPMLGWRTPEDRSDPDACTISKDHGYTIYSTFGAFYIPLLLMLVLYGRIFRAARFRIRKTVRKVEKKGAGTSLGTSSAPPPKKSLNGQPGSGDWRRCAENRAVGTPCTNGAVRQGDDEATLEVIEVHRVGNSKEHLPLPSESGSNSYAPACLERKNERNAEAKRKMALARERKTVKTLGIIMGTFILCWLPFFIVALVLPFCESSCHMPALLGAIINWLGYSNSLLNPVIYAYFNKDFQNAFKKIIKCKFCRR
Procedure: (§1) All PET scans for rats were performed with a small animal-dedicated microPET FOCUS 220 system (Siemens Medical Solutions USA, Knoxville, TN, USA), which yields a 25.8 cm (transaxial) × 7.6 cm (axial) field of view (FOV) and a spatial resolution of 1.3 mm full width at half maximum at the center of FOV [8]. The rats were anesthetized with 1.5-2% isoflurane in air (2 L/min flow rate). Their body temperature was controlled using homeothermic controller and plate with a rectal probe, and their heart rates and arterial oxygen saturations were continuously measured by a pulse oximeter (CANL-425SVA; Med Associates, St. Albans, VT, USA). We also monitored respiration rates of these animals with a custom-made monitoring system (Nagano Electronics, Hitachinaka, Japan). A 20-min transmission scan for attenuation correction was performed using a spiraling ^68Ge-^68Ga point source. Subsequently, list-mode scans were carried out for 90 min. All list-mode data were sorted and Fourier rebinned into two-dimensional sinograms (frames: 4 × 1, 8 × 2, and 14 × 5 min). Images were thereafter reconstructed using two-dimensional filtered back-projection with a 0.5-mm Hanning filter. [^11C]-WAY-100635 was injected via the tail vein as a single bolus at the start of emission scanning. The injected dose of the radiotracer was 85.3 ± 28.6 MBq/rat (mean ± SD).
(§2) Anatomical regions of interest (ROIs) were placed on the medial prefrontal cortex (MPFC) and dorsal raphe nucleus (DRN) using PMOD® image software (PMOD Group, Zurich, Switzerland) with reference to the MRI template. Radioligand binding was examined by calculating the binding potential (BP ND; ratio at equilibrium of specifically-bound radioligand to that of nondisplaceable radioligand in tissue) based on a simplified reference tissue model (SRTM) using the cerebellar time-radioactivity curve as reference.
(§3) Occupancy of 5-HT1A receptors by E2110 was calculated using the following equation:
(§4) RO(%)=BPND,baseline−BPND,drug/BPND,baseline×100 (2)
(§5) where BP ND, baseline and BP ND, drug are estimated BP ND at baseline and following drug administration, respectively.
(§6) To examine the dose-RO relationship at a single time point, four male SD rats, which had undergone a baseline PET imaging in advance, were scanned with PET at 4 hours after being pretreated with 4 oral doses (0.3, 1, 3, 10 mg/kg) of E2110. In this assay, approximately 250 µL of blood samples were collected from the tail vein upon initiation of the scan for quantification of plasma concentration of E2110. We further examined RO at different time points after the drug administration by conducting PET scans of four male SD rats at 2, 4, 6 or 8 hours after pretreatment with a single oral dose of 1 mg/kg E2110. In addition to this series of PET assays for male rats, pilot PET scans for female rats (n = 3) were carried out at baseline and 4 hours after oral administration of 0.1 mg/kg E2110 to examine whether relationships between plasma concentration of E2110 and RO by this drug in the brain are consistent between two genders. In all experiments, scans for the same individual receiving E2110 were conducted more than 1 week apart.
As described in previous studies on 5-HT1A receptor antagonists the relationship between RO and plasma drug concentration at equilibrium can be described according to the law of mass action by the curvilinear function, based on the assumption that the free brain concentration is equal to free plasma concentration and the free fraction in plasma is not concentration-dependent:
RO(%)=ROmax/Kdapp+CpCp (3)
where ROmax is the maximum occupancy that can be induced by E2110, Kd ^app the apparent equilibrium constant, and Cp the plasma concentration of E2110. This model is analogous to the Emax model:
where Emax (ROmax) is the maximum effect (maximum RO) and EC50 (= Kd) is the E2110 plasma concentration required to produce 50% of Emax. […]

rat 5-HT1A receptor = biological target: T2, rat 5-HT1A receptor (Rattus norvegicus, UniProt P19327); experiment: Binding assay in rat hippocampal membrane fraction ([3H]MPPF); settings: rat hippocampal membranes, 0.3 nM [3H]MPPF, 25°C 60 min; read-out: Ki, 5-HT1A receptor affinity
T2 construct: from tissue; host or cells: rat hippocampus, membrane (microsomal) fraction
T2 sequence (P19327 1-422): T1 sequence (P19327 1-422)
Procedure: Rat hippocampal samples were weighed, homogenized in 10-fold volume of 50 mM Tris-HCl (pH 7.4) on an ice bath, and centrifuged (50,000×g, 4°C, 20 min). The precipitate was further homogenized in a 10-fold volume of 50 mM Tris-HCl (pH 7.4) on an ice bath and centrifuged (50,000×g, 4°C, 20 min). The obtained precipitate was homogenized in 50 mM Tris-HCl (pH 7.4) to render a concentration of 100 mg tissue eq./mL. The obtained microsomal fraction was stored as a receptor stock solution at -80°C until use. […] MPPF in a total 1-ml reaction volume at 25°C for 60 min. The reaction was terminated, and bound radioactivity was separated from free radioligands by filtering and washing three times with 3 ml of 50 mM Tris-HCl (pH 7.4). The radioactivity content of the filters in 5 ml of liquid scintillator (Atomlight; PerkinElmer) was counted by TR2500 scintillation counter (PerkinElmer Life & Analytical Sciences). The specific binding was determined as the difference between total and nonspecific binding, measured in the absence and presence of 100 µM 5-HT. Data were analyzed by Scatchard plot to estimate equilibrium constant (Kd) values. For the competition experiments, binding assays were carried out using 0.3 nM [^3H] […] MPPF according to the following equation:
Ki=IC50/1+[radioligand]/Kd (1)
where [radioligand] means the concentration of the radioligand used.

5-HT1A receptors [2] = biological target: T1, 5-HT1A receptors; experiment: PET 5-HT1A receptor occupancy, time-course study (effect compartment model); format: in vivo, Sprague-Dawley rat; settings: for EC50: time-course study
Procedure: as §1, §2, §3, §4, §5, §6
The effect compartment model is illustrated in Figure 2. The mean plasma concentration profile of E2110 in each of four rats was fitted by two-compartment model with first order absorption and elimination. A sigmoid Emax model (Equation 4) based on the concentration in the effect compartment was fitted to the PD (RO) data. PK and PD models were linked using an effect compartment model described by the following equation: […]
where Cp and Ce are concentrations of E2110 in the plasma and effect compartments, respectively, and ke0 represents the equilibration rate constant for the effect compartment. PK and PD parameters were estimated by using […] (Version 2.01, MicroMath Research, UT, USA).

SMILES: CNC(=O)c1ccc2ccn(C3CCN(CCc4c(OC)ccc5c4OC(C)(C)CC5=O)CC3)c2c1.O=C(O)/C=C/C(=O)O [E2110, 1-{1-[2-(7-Methoxy-2,2-dimethyl-4-oxochroman-8-yl)ethyl]piperidine-4-yl}-N-methyl-1H-indole-6-carboxamide fumarate]
- 5-HT1A RO at high doses (5-HT1A receptors [1]; 3 and 10 mg/kg oral, 4 h, both ROIs (MPFC, DRN)): full occupancy
- EC50 (5-HT1A receptors [1]; DRN, dose-response study, 4 h after oral 0.3-10 mg/kg, male SD rats, Emax model, read-out: EC50 (plasma concentration required for 50% 5-HT1A RO) (converted)): 5400 pM
- EC50 (5-HT1A receptors [1]; DRN, dose-response study, Emax model, read-out: EC50 (plasma concentration required for 50% 5-HT1A RO) (converted)): 4360 pM
- EC50 (5-HT1A receptors [1]; DRN, dose-response study, EC50 x unbound fraction in plasma, read-out: free concentration-based EC50 for 5-HT1A RO (converted)): 320 pM
- EC50 (5-HT1A receptors [1]; DRN, dose-response study, read-out: free concentration-based EC50 for 5-HT1A RO (converted)): 264 pM
- EC50 (5-HT1A receptors [1]; DRN, free CNS concentration assumed one-tenth of free plasma, read-out: in vivo EC50 corrected for the difference in free drug concentrations between plasma and CNS): 32 pM
- free concentration-based EC50 relative to in vitro Ki (5-HT1A receptors [1]; MPFC and DRN, dose-response study): approximately 10 fold
- EC50 (5-HT1A receptors [1]; MPFC, dose-response study, 4 h after oral 0.3-10 mg/kg, male SD rats, Emax model, read-out: EC50 (plasma concentration required for 50% 5-HT1A RO) (converted)): 7510 pM
- EC50 (5-HT1A receptors [1]; MPFC, dose-response study, Emax model, read-out: EC50 (plasma concentration required for 50% 5-HT1A RO) (converted)): 6080 pM
- EC50 (5-HT1A receptors [1]; MPFC, dose-response study, EC50 x unbound fraction in plasma, read-out: free concentration-based EC50 for 5-HT1A RO (converted)): 450 pM
- EC50 (5-HT1A receptors [1]; MPFC, dose-response study, read-out: free concentration-based EC50 for 5-HT1A RO (converted)): 363 pM
- EC50 (5-HT1A receptors [1]; MPFC, free CNS concentration assumed one-tenth of free plasma, read-out: in vivo EC50 corrected for the difference in free drug concentrations between plasma and CNS): 45 pM
- 5-HT1A RO, dose dependence (5-HT1A receptors [1]; single oral doses of 0.3, 1, 3, and 10 mg/kg, each region): dose-dependently induced 5-HT1A RO
- Ki (rat 5-HT1A receptor): 45 pM
- EC50 (5-HT1A receptors [2]; DRN, 1 mg/kg oral, male SD rats, effect compartment model, read-out: EC50 for occupancy of 5-HT1A receptors (converted)): 7380 pM
- EC50 (5-HT1A receptors [2]; DRN, effect compartment model, read-out: EC50 for occupancy of 5-HT1A receptors (converted)): 5940 pM
- EC50 (5-HT1A receptors [2]; DRN, read-out: EC50 for 5-HT1A RO, value in parentheses (free concentration-based)): 440 pM
- EC50 (5-HT1A receptors [2]; MPFC, 1 mg/kg oral, male SD rats, effect compartment model, read-out: EC50 for occupancy of 5-HT1A receptors (converted)): 5850 pM
- EC50 (5-HT1A receptors [2]; MPFC, effect compartment model, read-out: EC50 for occupancy of 5-HT1A receptors (converted)): 4740 pM
- EC50 (5-HT1A receptors [2]; MPFC, read-out: EC50 for 5-HT1A RO, value in parentheses (free concentration-based)): 350 pM
- half-life (5-HT1A receptors [2]; Sprague-Dawley, rat, effect compartment model, 1 mg/kg oral, male SD rats, read-out: CNS equilibration t1/2 (from ke0) (converted)): 1.4 h
- 5-HT1A RO measured by PET versus simulated RO (5-HT1A receptors [2]; female rats, 4 hours after oral 0.1 mg/kg, pilot study n = 3): in good agreement with calculated data
